Laboratory results from PubChem BioAssay AID248 (DTP/NCI, 2004).
Several values for one entry are separate records, joined by “and”; a condition that tells them apart may be missing. Equal values may be shown once. Inconclusive results and toxic doses are left out. Rule as the data show it: active = T/C of 150% or more; inactive = T/C below 125%.

Tested on: L1210 leukemia ip in BDF1 mice, survival T/C
Test: NCI In Vivo Anticancer Drug Screen. Data for tumor model L1210 Leukemia (intraperitoneal) in B6D2F1 (BDF1) mice
Conditions: endpoint: mean survival time, higher = longer survival
In short: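 Transplantable tumor model; survival measured in treated vs vehicle control mice. Value = treated/control.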

[1] = dose: 100.0 mg/kg/injection, schedule: Q01DX001 (ip), vehicle: other
[2] = dose: 200.0 mg/kg/injection, schedule: Q01DX001 (ip), vehicle: other
[3] = dose: 400.0 mg/kg/injection, schedule: Q01DX001 (ip), vehicle: other
[4] = dose: 100.0 mg/kg/injection, schedule: Q01DX001 (ip), vehicle: saline
[5] = dose: 400.0 mg/kg/injection, schedule: Q01DX001 (ip), vehicle: saline
[6] = dose: 100.0 mg/kg/injection, schedule: Q04DX003 (ip), vehicle: saline with Tween-80
[7] = dose: 200.0 mg/kg/injection, schedule: Q04DX003 (ip), vehicle: saline with Tween-80
[8] = dose: 50.0 mg/kg/injection, schedule: Q01DX009 (ip), vehicle: Klucel (hydroxypropylcellulose) (HPC)
[9] = dose: 100.0 mg/kg/injection, schedule: Q01DX009 (ip), vehicle: Klucel (hydroxypropylcellulose) (HPC)
[10] = dose: 200.0 mg/kg/injection, schedule: Q01DX009 (ip), vehicle: Klucel (hydroxypropylcellulose) (HPC)
[11] = dose: 200.0 mg/kg/injection, schedule: Q04DX003 (ip), vehicle: Klucel (hydroxypropylcellulose) (HPC)
[12] = dose: 400.0 mg/kg/injection, schedule: Q04DX003 (ip), vehicle: Klucel (hydroxypropylcellulose) (HPC)
[13] = dose: 75.0 mg/kg/injection, schedule: Q01DX001 (ip), vehicle: other
[14] = dose: 400.0 mg/kg/injection, schedule: Q01DX009 (ip), vehicle: Klucel (hydroxypropylcellulose) (HPC)
[15] = dose: 100.0 mg/kg/injection, schedule: Q01DX009 (ip), vehicle: saline with Tween-80
[16] = dose: 200.0 mg/kg/injection, schedule: Q01DX001 (ip), vehicle: saline

Measured: T/C

N#CCc1ccccc1N(C(=O)CCl)C(=O)CCl
inactive: dose: 100.0 mg/kg/injection, schedule: Q01DX001 (ip), vehicle: saline sonified 98 % of control | dose: 200.0 mg/kg/injection, schedule: Q01DX001 (ip), vehicle: saline sonified 103 % of control | dose: 400.0 mg/kg/injection, schedule: Q01DX001 (ip), vehicle: saline sonified 103 % of control

CNC(Cl)(Cl)NC
inactive: dose: 50.0 mg/kg/injection, schedule: Q01DX009 (ip), vehicle: saline 90 % of control | dose: 100.0 mg/kg/injection, schedule: Q01DX009 (ip), vehicle: saline 87 % of control | dose: 100.0 mg/kg/injection, schedule: Q04DX002 (ip), vehicle: saline 86 % of control | dose: 200.0 mg/kg/injection, schedule: Q04DX002 (ip), vehicle: saline 88 % of control

O=S(=O)(c1ccccc1)N1CC1CBr (stereo not drawn)
inactive: [1] 105 % of control | [2] 100 % of control | [3] 108 % of control

C/C(=N\N=C(/C)c1ccc(N)cc1)c1ccc(N)cc1
inactive: [4] 90 % of control | [5] 96 % of control

COc1ccc(C(=O)/C=C/c2ccccc2Cl)cc1
inactive: [6] 97 % of control | [7] 97 % of control

CC1=CCCC(C)(C)C1C=C1C(=O)NC(=S)NC1=O (stereo not drawn)
inactive: [8] 92 % of control | [9] 98 % of control | [10] 109 % of control

Cn1c(C=O)cc(=O)[nH]c1=S
inactive: [8] 92 % of control | [9] 93 % of control | dose: 100.0 mg/kg/injection, schedule: Q04DX003 (ip), vehicle: Klucel (hydroxypropylcellulose) (HPC) 100 % of control | [10] 93 % of control | [11] 105 % of control | [12] 100 % of control

COc1cc(C)c(C)cc1/C(C)=C(/C)C(=O)O (tested in a mixture with another compound)
inactive: dose: 100.0 mg/kg/injection, schedule: Q01DX001 (ip), vehicle: saline with Tween-80 100 % of control | dose: 200.0 mg/kg/injection, schedule: Q01DX001 (ip), vehicle: saline with Tween-80 100 % of control | dose: 400.0 mg/kg/injection, schedule: Q01DX001 (ip), vehicle: saline with Tween-80 103 % of control

O=C1CCC2CN3CCc4c([nH]c5ccccc45)C3CC2C1 (stereo not drawn)
inactive: [13] 110 % of control

N#CNc1nc(-c2ccccc2)cc(-c2ccccc2O)n1
inactive: dose: 100.0 mg/kg/injection, schedule: Q04DX002 (ip), vehicle: Klucel (hydroxypropylcellulose) (HPC) 98 % of control | dose: 200.0 mg/kg/injection, schedule: Q04DX002 (ip), vehicle: Klucel (hydroxypropylcellulose) (HPC) 95 % of control | dose: 400.0 mg/kg/injection, schedule: Q04DX002 (ip), vehicle: Klucel (hydroxypropylcellulose) (HPC) 109 % of control

CC(=O)CC(=O)Nc1cccc(O)c1
inactive: [10] 91 % of control | [14] 100 % of control

Nc1ncc(Br)cc1Br
inactive: [15] 94 % of control | [6] 101 % of control | dose: 200.0 mg/kg/injection, schedule: Q01DX009 (ip), vehicle: saline with Tween-80 108 % of control | [7] 95 % of control | dose: 400.0 mg/kg/injection, schedule: Q01DX009 (ip), vehicle: saline with Tween-80 116 % of control | dose: 400.0 mg/kg/injection, schedule: Q04DX003 (ip), vehicle: saline with Tween-80 97 % of control

Cc1ccc(S/C(=C/c2ccccc2)C(N)=O)cc1
inactive: [11] 93 % of control | [12] 95 % of control

CCCC(CCC)NCCOC(=O)c1ccc(N)cc1
inactive: [13] 101 % of control

CC(=O)NCC(O)c1ccccc1 (stereo not drawn)
inactive: [4] 94 % of control | [16] 100 % of control | [5] 91 % of control

O=C(O)CCC1CCC(=O)C1 (stereo not drawn)
inactive: dose: 50.0 mg/kg/injection, schedule: Q04DX002 (ip), vehicle: saline with Tween-80 102 % of control | dose: 100.0 mg/kg/injection, schedule: Q04DX002 (ip), vehicle: saline with Tween-80 106 % of control | dose: 200.0 mg/kg/injection, schedule: Q04DX002 (ip), vehicle: saline with Tween-80 98 % of control | dose: 400.0 mg/kg/injection, schedule: Q04DX002 (ip), vehicle: saline with Tween-80 95 % of control

CSC(=NC1CCCCC1)Nc1ccccc1
inactive: [1] 98 % of control | [2] 98 % of control | [3] 88 % of control

Nc1ccc(Cl)nc1
inactive: dose: 50.0 mg/kg/injection, schedule: Q01DX001 (ip), vehicle: saline 98 % of control | [4] 98 % of control | [16] 102 % of control | [5] 96 % of control

COc1cccc(N(CCO)CCO)c1OC
inactive: dose: 3.75 mg/kg/injection, schedule: Q01DX Z (ip), vehicle: saline 93 % of control | dose: 7.5 mg/kg/injection, schedule: Q01DX Z (ip), vehicle: saline 93 % of control | dose: 15.5 mg/kg/injection, schedule: Q01DX Z (ip), vehicle: saline 97 % of control | dose: 31.0 mg/kg/injection, schedule: Q01DX Z (ip), vehicle: saline 97 % of control | dose: 62.5 mg/kg/injection, schedule: Q01DX Z (ip), vehicle: saline 96 % of control | dose: 125.0 mg/kg/injection, schedule: Q01DX Z (ip), vehicle: saline 101 % of control | dose: 250.0 mg/kg/injection, schedule: Q01DX Z (ip), vehicle: saline 97 % of control | dose: 500.0 mg/kg/injection, schedule: Q01DX Z (ip), vehicle: saline 101 % of control

O=S(=O)(NC1CCCCC1)c1ccccc1
inactive: dose: 75.0 mg/kg/injection, schedule: Q01DX009 (ip), vehicle: saline with Tween-80 94 % of control | dose: 150.0 mg/kg/injection, schedule: Q01DX009 (ip), vehicle: saline with Tween-80 95 % of control | dose: 300.0 mg/kg/injection, schedule: Q01DX009 (ip), vehicle: saline with Tween-80 97 % of control

CN(C)CCSC1=CC(=O)c2ccccc2C1=O
inactive: dose: 0.78 mg/kg/injection, schedule: Q01DX009 (ip), vehicle: water 91 % of control | dose: 1.56 mg/kg/injection, schedule: Q01DX009 (ip), vehicle: water 92 % of control

CCCCCCC(C)NCC(C)(C)OC(=O)c1ccc(N)cc1 (stereo not drawn)
inactive: [13] 93 % of control | dose: 150.0 mg/kg/injection, schedule: Q01DX001 (ip), vehicle: other 101 % of control | dose: 300.0 mg/kg/injection, schedule: Q01DX001 (ip), vehicle: other 93 % of control

CCCNC1(C(N)=O)CCN(Cc2ccccc2)CC1
inactive: dose: 25.0 mg/kg/injection, schedule: Q01DX009 (ip), vehicle: saline with Tween-80 93 % of control | dose: 25.0 mg/kg/injection, schedule: Q04DX003 (ip), vehicle: saline with Tween-80 97 % of control | dose: 50.0 mg/kg/injection, schedule: Q01DX009 (ip), vehicle: saline with Tween-80 95 % of control | dose: 50.0 mg/kg/injection, schedule: Q04DX003 (ip), vehicle: saline with Tween-80 97 % of control | [15] 91 % of control | [6] 97 % of control and 101 % of control

CC(C)C(O)(C(=O)NN)C(=O)NN
inactive: [9] 100 % of control | dose: 100.0 mg/kg/injection, schedule: Q04DX003 (ip), vehicle: saline 105 % of control | [10] 90 % of control | dose: 200.0 mg/kg/injection, schedule: Q04DX003 (ip), vehicle: saline 96 % of control | [14] 93 % of control | dose: 400.0 mg/kg/injection, schedule: Q04DX003 (ip), vehicle: saline 103 % of control
